Measurements as given in the supplement of paper PMC10307832.

How the values were obtained:
Assay in all cases: relative viability (nuclei count vs DMSO), 5 days (fraction); higher = more cells survive
Afatinib + Navitoclax = compound: CN(C)C/C=C/C(=O)Nc1cc2c(Nc3ccc(F)c(Cl)c3)ncnc2cc1O[C@H]1CCOC1 [Afatinib] + CC1(C)CCC(c2ccc(Cl)cc2)=C(CN2CCN(c3ccc(C(=O)NS(=O)(=O)c4ccc(N[C@H](CCN5CCOCC5)CSc5ccccc5)c(S(=O)(=O)C(F)(F)F)c4)cc3)CC2)C1 [Navitoclax] (partner 0.5 µM)
How it was run: (§1)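 Each reported value is a median over duplicate plates. It expresses relative viability: treated-well nuclei count divided by vehicle-well nuclei count. Lung cancer cell lines in 1536-well plates were dosed by pin tool a day after seeding, alone with one drug or with a fixed anchor-drug dose plus five library-drug doses (not always all listed) in √10 steps, and nuclei were counted after 5 days.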

Afatinib + Luminespib = compound: CN(C)C/C=C/C(=O)Nc1cc2c(Nc3ccc(F)c(Cl)c3)ncnc2cc1O[C@H]1CCOC1 [Afatinib] + CCNC(=O)c1noc(-c2cc(C(C)C)c(O)cc2O)c1-c1ccc(CN2CCOCC2)cc1 [Luminespib] (partner 0.01 µM)
How it was run: as §1

Afatinib + Foretinib = compound: CN(C)C/C=C/C(=O)Nc1cc2c(Nc3ccc(F)c(Cl)c3)ncnc2cc1O[C@H]1CCOC1 [Afatinib] + COc1cc2c(Oc3ccc(NC(=O)C4(C(=O)Nc5ccc(F)cc5)CC4)cc3F)ccnc2cc1OCCCN1CCOCC1 [Foretinib] (partner 0.25 µM)
How it was run: as §1

Afatinib + Linsitinib = compound: CN(C)C/C=C/C(=O)Nc1cc2c(Nc3ccc(F)c(Cl)c3)ncnc2cc1O[C@H]1CCOC1 [Afatinib] + C[C@]1(O)C[C@@H](c2nc(-c3ccc4ccc(-c5ccccc5)nc4c3)c3c(N)nccn32)C1 [Linsitinib] (partner 1 µM)
How it was run: as §1

| Cell Line | relative viability (Afatinib + Navitoclax; first compound 0.005 µM) | relative viability (Afatinib + Navitoclax; first compound 0.01581 µM) | relative viability (Afatinib + Navitoclax; first compound 0.05 µM) | relative viability (Afatinib + Navitoclax; first compound 0.5 µM) | relative viability (Afatinib + Luminespib; first compound 0.005 µM) | relative viability (Afatinib + Luminespib; first compound 0.01581 µM) | relative viability (Afatinib + Luminespib; first compound 0.05 µM) | relative viability (Afatinib + Luminespib; first compound 0.1581 µM) | relative viability (Afatinib + Luminespib; first compound 0.5 µM) | relative viability (Afatinib + Foretinib; first compound 0.005 µM) | relative viability (Afatinib + Foretinib; first compound 0.01581 µM) | relative viability (Afatinib + Foretinib; first compound 0.05 µM) | relative viability (Afatinib + Foretinib; first compound 0.1581 µM) | relative viability (Afatinib + Foretinib; first compound 0.5 µM) | relative viability (Afatinib + Linsitinib; first compound 0.005 µM) | relative viability (Afatinib + Linsitinib; first compound 0.01581 µM) | relative viability (Afatinib + Linsitinib; first compound 0.05 µM) | relative viability (Afatinib + Linsitinib; first compound 0.5 µM) | relative viability (Afatinib + Navitoclax; first compound 0.1581 µM) | relative viability (Afatinib + Linsitinib; first compound 0.1581 µM) |
| --- | --- | --- | --- | --- | --- | --- | --- | --- | --- | --- | --- | --- | --- | --- | --- | --- | --- | --- | --- | --- |
| NCI-H1666 | 0.887 | 0.748 | 0.583 | 0.389 | 0.973 | 0.931 | 0.796 | 0.807 | 0.808 | 0.932 | 0.812 | 0.761 | 0.725 | 0.774 | 0.724 | 0.743 | 0.56 | 0.561 | – | – |
| NCI-H1734 | 1.01 | 0.877 | 0.885 | 0.781 | 0.209 | 0.225 | 0.196 | 0.197 | 0.19 | 0.926 | 0.785 | 0.83 | 0.73 | 0.924 | 0.9 | 0.75 | 0.931 | 0.771 | 0.78 | 0.865 |
| NCI-H1755 | 0.957 | 0.981 | 1.08 | 0.987 | 0.287 | 0.367 | 0.587 | 0.408 | 0.49 | 0.947 | 0.937 | 0.964 | 0.901 | 0.897 | 0.979 | 0.992 | 0.997 | 0.995 | 0.995 | 0.938 |
| NCI-H1793 | 0.404 | 0.348 | 0.356 | 0.32 | 0.19 | 0.215 | 0.238 | 0.168 | 0.173 | 0.621 | 0.463 | 0.401 | 0.352 | 0.353 | 0.566 | 0.431 | 0.61 | 0.514 | 0.357 | 0.461 |
| NCI-H1915 | 0.795 | 0.763 | 0.779 | 0.778 | 0.807 | 0.848 | 0.772 | 0.743 | 0.596 | 1.19 | 1.05 | 1.11 | 1.02 | 0.974 | 1.13 | 1.08 | 1.11 | 1.07 | 0.813 | 1.07 |
| NCI-H1944 | 1.04 | 0.959 | 0.903 | 0.765 | 0.609 | 0.629 | 0.552 | 0.498 | 0.491 | 0.797 | 0.899 | 0.668 | 0.535 | 0.657 | 1.04 | 0.904 | 0.776 | 0.571 | 0.668 | 0.566 |
| NCI-H1975 | 1.19 | 1.14 | 1.24 | 0.624 | 0.199 | 0.18 | 0.199 | 0.122 | 0.169 | 0.952 | 0.907 | 0.872 | 0.353 | 0.303 | 0.901 | 1.1 | 0.794 | 0.217 | 0.488 | 0.261 |
| NCI-H1993 | 0.674 | 0.722 | 0.735 | 0.704 | 0.752 | 0.557 | 0.58 | 0.549 | 0.571 | 0.551 | 0.598 | 0.6 | 0.675 | 0.618 | 0.714 | 0.736 | 0.803 | 0.696 | 0.788 | 0.822 |
| NCI-H2009 | 1.19 | 1.12 | 1.27 | 1.18 | 1.08 | 1.04 | 1.13 | 1.02 | 1.08 | 1.22 | 1.19 | 1.31 | 1.21 | 1.33 | 1.23 | 1.14 | 1.23 | 1.22 | 1.15 | 1.13 |
| NCI-H2023 | 1.01 | 1.01 | 0.876 | 0.854 | 0.85 | 0.711 | 0.756 | 0.594 | 0.71 | 0.811 | 0.892 | 0.42 | 0.333 | 0.562 | 0.577 | 0.494 | 0.453 | 0.414 | 0.792 | 0.355 |
| NCI-H2085 | 0.985 | 1.03 | 0.994 | 0.936 | 0.405 | 0.396 | 0.409 | 0.32 | 0.296 | 0.888 | 0.773 | 0.791 | 0.59 | 0.628 | 0.726 | 0.773 | 0.769 | 0.675 | 0.808 | 0.417 |
| NCI-H2087 | 0.996 | 0.957 | 1.11 | 0.925 | 0.178 | 0.163 | 0.21 | 0.167 | 0.161 | 1.19 | 1.16 | 1.24 | 1.15 | 0.842 | 0.985 | 0.916 | 1.01 | 0.986 | 0.837 | 0.918 |
| NCI-H2126 | 0.836 | 0.854 | 0.829 | 0.411 | 0.958 | 0.861 | 0.796 | 0.681 | 0.718 | 1.03 | 1.19 | 1.08 | 0.729 | 0.853 | 0.724 | 0.701 | 0.583 | 0.424 | 0.441 | 0.465 |
| NCI-H2228 | 0.864 | 0.906 | 0.865 | 0.51 | 0.141 | 0.127 | 0.136 | 0.132 | 0.143 | 0.914 | 0.88 | 0.774 | 0.795 | 0.759 | 0.604 | 0.778 | 0.631 | 0.502 | – | – |
| NCI-H2347 | 0.932 | 0.79 | 0.873 | 0.804 | 0.295 | 0.352 | 0.555 | 0.404 | 0.316 | 1.08 | 0.842 | 1.03 | 0.899 | 0.518 | 1.04 | 0.933 | 1.03 | 1.03 | 0.903 | 1.08 |
| NCI-H2405 | 0.857 | 0.879 | 0.912 | 1.07 | 0.578 | 0.695 | 0.648 | 0.388 | 0.441 | 1.07 | 1.02 | 1.05 | 0.978 | 1.08 | 0.808 | 0.875 | 0.963 | 0.906 | 0.715 | 0.836 |
